PMC3983056 (PLoS Pathogens, 2014)

Assays:
[1] = Clinical systemic exposure; format: in vivo, human
[2] = tested on: HIV p24 antigen in latently infected CD4 T-cell cultures; experiment: Flow cytometry analysis of p24 expression in the in vitro latency model; format: cell-based; details: for cells expressing p24 antigen: 48 hours, live cell gate
Experimental: Seven days post-infection, cells infected with NL4-3-Luc virus were stimulated for 48 hours with test compounds. Cells were stained with fixable viability dye v450 (eBioscience, San Diego, CA) in phosphate buffered saline (PBS) +2% FBS for 30 minutes at 4°C. Cells were fixed with IC Fixation Buffer (eBioscience) for 20 minutes at room temperature in the dark followed by treatment with a permeabilization buffer (eBioscience) for 30 minutes at 4°C. […] The cells were analyzed on a LSR Fortessa (BD Biosciences, San Jose, CA) and collected data were processed using a FlowJo Analysis Software (TreeStar, Ashland, OR).

C/C=C1\NC(=O)[C@H]2CSSCC/C=C/[C@H](CC(=O)N[C@H](C(C)C)C(=O)N2)OC(=O)[C@H](C(C)C)NC1=O [RMD, romidepsin]
Free drug concentration, clinical systemic exposure ([1]; at Cmax, RMD 14 mg/m^2 i.v., VOR 400 mg p.o.): 56 nM | Fraction of clinical exposure ([1]; ratio of free drug concentration in cell culture media (RMD 40 nM, VOR 1,000 nM) and in serum of clinically treated patients): 39% | cells expressing p24 antigen ([2]; 5 nM RMD): 3.3% | cells expressing p24 antigen ([2]; 80 nM RMD): 5.5% | time course of p24 expression ([2]; 24 to 72 hours, 40 nM RMD or anti-CD3/CD28 antibodies, in presence of antiretrovirals): continued to increase for 72 hours
